In patent publication US20260242419A1, “A CYCLIC PEPTIDE FOR TRAPPING INTERLEUKIN-1 BETA” (Merck Sharp & Dohme LLC, priority 2023, published 2026):
Starred links: 1 amine or outer side, 2 acyl side, 3 side chain; linkers in the order of their positions; H or OH if unused. Non-standard residues stand in square brackets, D forms with d. Residues, ends and D or L forms follow the SMILES beside them. Phe(4-(5-CO2H-2-pyrimidyl)) = N[C@@H](Cc1ccc(-c2ncc(C(=O)O)cn2)cc1)C(=O)O; dPro(4R-(4-pyridylmethyl)) = O=C(O)[C@H]1C[C@@H](Cc2ccncc2)CN1; Trp(βS-Me,4-F) = C[C@@H](c1c[nH]c2cccc(F)c12)[C@H](N)C(=O)O; 3Aminoazetidine3carboxyl = O=C(C1(N[*:1])CN([*:3])C1)[*:2]; Bip(4'-COOH) = N[C@@H](Cc1ccc(-c2ccc(C(=O)O)cc2)cc1)C(=O)O; Ala(1-bicyclo(1.1.1)pentyl) = N[C@@H](CC12CC(C1)C2)C(=O)O; X26 = O=C(O)c1ccc(-c2ncc(C[C@H](N[*:1])C(=O)[*:2])cn2)cc1; dPro(4R-Bzl(4-F)) = O=C(O)[C@H]1C[C@@H](Cc2ccc(F)cc2)CN1; X14 = O=C([C@H]1[C@@H](Cc2ccccc2)CCN1[*:1])[*:2]; Ala(pyrimidin-5-yl) = N[C@@H](Cc1cncnc1)C(=O)O; Phe(4-COOH) = N[C@@H](Cc1ccc(C(=O)O)cc1)C(=O)O; Pro(cis-4-F) = O=C(O)[C@@H]1C[C@H](F)CN1; AEF = NCCOc1ccc(C[C@H](N)C(=O)O)cc1; 4Pal = N[C@@H](Cc1ccncc1)C(=O)O; Dab = NCC[C@H](N)C(=O)O; Dap = NC[C@H](N)C(=O)O; Aib = CC(C)(N)C(=O)O

Biological target: T1, IL-1β (Homo sapiens, UniProt P01584)
T1 construct: purchased BioLegend 579404
T1 sequence (P01584 117-269): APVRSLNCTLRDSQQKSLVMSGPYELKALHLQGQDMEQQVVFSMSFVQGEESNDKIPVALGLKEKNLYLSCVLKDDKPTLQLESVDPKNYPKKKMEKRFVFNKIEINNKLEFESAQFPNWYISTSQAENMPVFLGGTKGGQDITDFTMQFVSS
Assay: IL-6 assay in MRC5 cells: inhibition of IL-1β induced IL-6 secretion (AlphaLISA)
Format: cell-based
Details: inhibition of IL-1β induced IL-6 secretion in MRC5 cells; read-out: MRC5 IC50
Method in brief: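 Compound was pre-incubated 1 h at ambient temperature with recombinant human IL-1β at 2λ EC80 before adding human lung fibroblast MRC5 cells (3000/well) in EMEM with 0.025% BSA. After overnight culture at 37 °C, 5% CO2, secreted IL-6 in conditioned medium was measured by AlphaLISA; IC50 from 4-parameter logistic fits.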

| IC50 | Compound |
| --- | --- |
| 0.059 nM | C[C@@H](c1c[nH]c2cccc(F)c12)[C@@H]1NC(=O)[C@@H]2C[C@H](F)CN2C(=O)CNC(=O)[C@H](Cc2ccc(C(=O)O)cc2)NC(=O)[C@H](Cc2ccncc2)NC(=O)[C@H](Cc2ccc(-c3ccc(C(=O)O)cc3)cc2)NC(=O)[C@H]2C[C@@H](Cc3ccc(F)cc3)CN2C(=O)CNC(=O)[C@H](CCCNC(=N)N)NC(=O)[C@H](CCC(N)=O)NC(=O)[C@H](Cc2ccncc2)NC(=O)C(C)(C)NC(=O)[C@H](Cc2c[nH]c3ccccc23)NC(=O)[C@H](CCC(=O)O)NC(=O)C(C)(C)NC1=O [Example 76] (cyclo([Bip(4'-COOH)][4Pal][Phe(4-COOH)]G[Pro(cis-4-F)][Trp(βS-Me,4-F)][Aib]EW[Aib][4Pal]QRG[dPro(4R-Bzl(4-F))])) |
| 0.036 nM | CC(=O)NCCOc1ccc(C[C@@H]2NC(=O)[C@H]3[C@@H](Cc4ccccc4)CCN3C(=O)CNC(=O)[C@H](CCN)NC(=O)[C@H](CCC(N)=O)NC(=O)[C@H](Cc3cncnc3)NC(=O)C(C)(C)NC(=O)[C@H](Cc3c[nH]c4ccccc34)NC(=O)[C@H](CCC(=O)O)NC(=O)C(C)(C)NC(=O)[C@H]([C@@H](C)c3c[nH]c4cccc(F)c34)NC(=O)[C@@H]3C[C@H](F)CN3C(=O)CNC(=O)[C@H](Cc3ccc(C(=O)O)cc3)NC(=O)[C@H](Cc3ccncc3)NC2=O)cc1 [Example 78] (cyclo([AEF](Ac)[4Pal][Phe(4-COOH)]G[Pro(cis-4-F)][Trp(βS-Me,4-F)][Aib]EW[Aib][Ala(pyrimidin-5-yl)]Q[Dab]G[X14])) |
| 0.049 nM | C[C@@H](c1c[nH]c2cccc(F)c12)[C@@H]1NC(=O)[C@@H]2C[C@H](F)CN2C(=O)CNC(=O)[C@H](Cc2ccc(C(=O)O)cc2)NC(=O)[C@H](Cc2ccncc2)NC(=O)[C@H](Cc2ccc(-c3ncc(C(=O)O)cn3)cc2)NC(=O)[C@H]2C[C@@H](Cc3ccc(F)cc3)CN2C(=O)CNC(=O)[C@H](CCN)NC(=O)[C@H](CCC(N)=O)NC(=O)[C@H](Cc2ccncc2)NC(=O)C2(CNC2)NC(=O)[C@H](Cc2c[nH]c3ccccc23)NC(=O)[C@H](CCC(=O)O)NC(=O)C(C)(C)NC1=O [Example 81] (cyclo([Phe(4-(5-CO2H-2-pyrimidyl))][4Pal][Phe(4-COOH)]G[Pro(cis-4-F)][Trp(βS-Me,4-F)][Aib]EW[3Aminoazetidine3carboxyl][4Pal]Q[Dab]G[dPro(4R-Bzl(4-F))])) |
| 0.054 nM | C[C@@H](c1c[nH]c2cccc(F)c12)[C@@H]1NC(=O)[C@@H]2C[C@H](F)CN2C(=O)CNC(=O)[C@H](Cc2ccc(C(=O)O)cc2)NC(=O)[C@H](CC23CC(C2)C3)NC(=O)[C@H](Cc2ccc(-c3ncc(C(=O)O)cn3)cc2)NC(=O)[C@H]2C[C@@H](Cc3ccc(F)cc3)CN2C(=O)CNC(=O)[C@H](CCN)NC(=O)[C@H](CCC(N)=O)NC(=O)[C@H](Cc2cncnc2)NC(=O)C(C)(C)NC(=O)[C@H](Cc2c[nH]c3ccccc23)NC(=O)[C@H](CCC(=O)O)NC(=O)C(C)(C)NC1=O [Example 82] (cyclo([Phe(4-(5-CO2H-2-pyrimidyl))][Ala(1-bicyclo(1.1.1)pentyl)][Phe(4-COOH)]G[Pro(cis-4-F)][Trp(βS-Me,4-F)][Aib]EW[Aib][Ala(pyrimidin-5-yl)]Q[Dab]G[dPro(4R-Bzl(4-F))])) |
| 0.045 nM | C[C@@H](c1c[nH]c2cccc(F)c12)[C@@H]1NC(=O)[C@@H]2C[C@H](F)CN2C(=O)CNC(=O)[C@H](Cc2ccc(C(=O)O)cc2)NC(=O)[C@H](CC23CC(C2)C3)NC(=O)[C@H](Cc2ccc(-c3ncc(C(=O)O)cn3)cc2)NC(=O)[C@H]2C[C@@H](Cc3ccc(F)cc3)CN2C(=O)CNC(=O)[C@H](CCN)NC(=O)[C@H](CCC(N)=O)NC(=O)[C@H](Cc2cncnc2)NC(=O)C(C)(C)NC(=O)[C@H](Cc2c[nH]c3ccccc23)NC(=O)[C@H](CO)NC(=O)C(C)(C)NC1=O [Example 83] (cyclo([Phe(4-(5-CO2H-2-pyrimidyl))][Ala(1-bicyclo(1.1.1)pentyl)][Phe(4-COOH)]G[Pro(cis-4-F)][Trp(βS-Me,4-F)][Aib]SW[Aib][Ala(pyrimidin-5-yl)]Q[Dab]G[dPro(4R-Bzl(4-F))])) |
| 0.047 nM | C[C@@H](c1c[nH]c2cccc(F)c12)[C@@H]1NC(=O)[C@@H]2C[C@H](F)CN2C(=O)CNC(=O)[C@H](Cc2ccc(C(=O)O)cc2)NC(=O)[C@H](CC23CC(C2)C3)NC(=O)[C@H](Cc2ccc(-c3ncc(C(=O)O)cn3)cc2)NC(=O)[C@H]2C[C@@H](Cc3ccc(F)cc3)CN2C(=O)CNC(=O)[C@H](CCN)NC(=O)[C@H](CCC(N)=O)NC(=O)[C@H](Cc2ccncc2)NC(=O)C(C)(C)NC(=O)[C@H](Cc2c[nH]c3ccccc23)NC(=O)[C@H](CO)NC(=O)C(C)(C)NC1=O [Example 84] (cyclo([Phe(4-(5-CO2H-2-pyrimidyl))][Ala(1-bicyclo(1.1.1)pentyl)][Phe(4-COOH)]G[Pro(cis-4-F)][Trp(βS-Me,4-F)][Aib]SW[Aib][4Pal]Q[Dab]G[dPro(4R-Bzl(4-F))])) |
| 0.074 nM | C[C@@H]1NC(=O)C(C)(C)NC(=O)[C@H]([C@@H](C)c2c[nH]c3cccc(F)c23)NC(=O)[C@@H]2C[C@H](F)CN2C(=O)CNC(=O)[C@H](Cc2ccc(C(=O)O)cc2)NC(=O)[C@H](Cc2ccncc2)NC(=O)[C@H](Cc2ccc(-c3ncc(C(=O)O)cn3)cc2)NC(=O)[C@H]2C[C@@H](Cc3ccncc3)CN2C(=O)CNC(=O)[C@H](CCN)NC(=O)[C@H](CCC(N)=O)NC(=O)[C@H](Cc2ccncc2)NC(=O)C(C)(C)NC(=O)[C@H](Cc2c[nH]c3ccccc23)NC1=O [Example 85] (cyclo([Phe(4-(5-CO2H-2-pyrimidyl))][4Pal][Phe(4-COOH)]G[Pro(cis-4-F)][Trp(βS-Me,4-F)][Aib]AW[Aib][4Pal]Q[Dab]G[dPro(4R-(4-pyridylmethyl))])) |
| 0.083 nM | C[C@@H]1NC(=O)C(C)(C)NC(=O)[C@H]([C@@H](C)c2c[nH]c3cccc(F)c23)NC(=O)[C@@H]2C[C@H](F)CN2C(=O)CNC(=O)[C@H](Cc2ccc(C(=O)O)cc2)NC(=O)[C@H](CC23CC(C2)C3)NC(=O)[C@H](Cc2ccc(-c3ncc(C(=O)O)cn3)cc2)NC(=O)[C@H]2C[C@@H](Cc3ccncc3)CN2C(=O)CNC(=O)[C@H](CCN)NC(=O)[C@H](CCC(N)=O)NC(=O)[C@H](Cc2ccncc2)NC(=O)C(C)(C)NC(=O)[C@H](Cc2c[nH]c3ccccc23)NC1=O [Example 88] (cyclo([Phe(4-(5-CO2H-2-pyrimidyl))][Ala(1-bicyclo(1.1.1)pentyl)][Phe(4-COOH)]G[Pro(cis-4-F)][Trp(βS-Me,4-F)][Aib]AW[Aib][4Pal]Q[Dab]G[dPro(4R-(4-pyridylmethyl))])) |
| 0.045 nM | C[C@@H](c1c[nH]c2cccc(F)c12)[C@@H]1NC(=O)[C@@H]2C[C@H](F)CN2C(=O)CNC(=O)[C@H](Cc2ccc(C(=O)O)cc2)NC(=O)[C@H](CC23CC(C2)C3)NC(=O)[C@H](Cc2ccc(-c3ncc(C(=O)O)cn3)cc2)NC(=O)[C@H]2C[C@@H](Cc3ccncc3)CN2C(=O)CNC(=O)[C@H](CCN)NC(=O)[C@H](CCC(N)=O)NC(=O)[C@H](Cc2ccncc2)NC(=O)C(C)(C)NC(=O)[C@H](Cc2c[nH]c3ccccc23)NC(=O)[C@H](CO)NC(=O)C(C)(C)NC1=O [Example 89] (cyclo([Phe(4-(5-CO2H-2-pyrimidyl))][Ala(1-bicyclo(1.1.1)pentyl)][Phe(4-COOH)]G[Pro(cis-4-F)][Trp(βS-Me,4-F)][Aib]SW[Aib][4Pal]Q[Dab]G[dPro(4R-(4-pyridylmethyl))])) |
| 0.054 nM | C[C@@H](c1c[nH]c2cccc(F)c12)[C@@H]1NC(=O)[C@@H]2C[C@H](F)CN2C(=O)CNC(=O)[C@H](Cc2ccc(C(=O)O)cc2)NC(=O)[C@H](Cc2ccncc2)NC(=O)[C@H](Cc2cnc(-c3ccc(C(=O)O)cc3)nc2)NC(=O)[C@H]2C[C@@H](Cc3ccc(F)cc3)CN2C(=O)CNC(=O)[C@H](CCN)NC(=O)[C@H](CCC(N)=O)NC(=O)[C@H](Cc2cncnc2)NC(=O)C(C)(C)NC(=O)[C@H](Cc2c[nH]c3ccccc23)NC(=O)[C@H](CCC(=O)O)NC(=O)C(C)(C)NC1=O [Example 91] (cyclo([X26][4Pal][Phe(4-COOH)]G[Pro(cis-4-F)][Trp(βS-Me,4-F)][Aib]EW[Aib][Ala(pyrimidin-5-yl)]Q[Dab]G[dPro(4R-Bzl(4-F))])) |
| 0.059 nM | C[C@@H](c1c[nH]c2cccc(F)c12)[C@@H]1NC(=O)[C@@H]2C[C@H](F)CN2C(=O)CNC(=O)[C@H](Cc2ccc(C(=O)O)cc2)NC(=O)[C@H](CC23CC(C2)C3)NC(=O)[C@H](Cc2ccc(-c3ccc(C(=O)O)cc3)cc2)NC(=O)[C@H]2C[C@@H](Cc3ccncc3)CN2C(=O)CNC(=O)[C@H](CCN)NC(=O)[C@H](CCC(N)=O)NC(=O)[C@H](CN)NC(=O)C(C)(C)NC(=O)[C@H](Cc2c[nH]c3ccccc23)NC(=O)[C@H](CCC(=O)O)NC(=O)C(C)(C)NC1=O [Example 93] (cyclo([Bip(4'-COOH)][Ala(1-bicyclo(1.1.1)pentyl)][Phe(4-COOH)]G[Pro(cis-4-F)][Trp(βS-Me,4-F)][Aib]EW[Aib][Dap]Q[Dab]G[dPro(4R-(4-pyridylmethyl))])) |
| 0.054 nM | CC(=O)NCCOc1ccc(C[C@@H]2NC(=O)[C@H]3C[C@@H](Cc4ccc(F)cc4)CN3C(=O)CNC(=O)[C@H](CCN)NC(=O)[C@H](CCC(N)=O)NC(=O)[C@H](Cc3ccncc3)NC(=O)C(C)(C)NC(=O)[C@H](Cc3c[nH]c4ccccc34)NC(=O)[C@H](CCC(=O)O)NC(=O)C(C)(C)NC(=O)[C@H]([C@@H](C)c3c[nH]c4cccc(F)c34)NC(=O)[C@@H]3C[C@H](F)CN3C(=O)CNC(=O)[C@H](Cc3ccc(C(=O)O)cc3)NC(=O)[C@H](Cc3ccncc3)NC2=O)cc1 [Example 95] (cyclo([AEF](Ac)[4Pal][Phe(4-COOH)]G[Pro(cis-4-F)][Trp(βS-Me,4-F)][Aib]EW[Aib][4Pal]Q[Dab]G[dPro(4R-Bzl(4-F))])) |
